Data set [1] relates to A2780CisR cisplatin-resistant ovarian cancer cells. Put plainly: MTT cytotoxicity assay, A2780cisR. The format is cell-based, human. Conditions: for IC50: MTT, 72 h, for 5-FU loaded systems MW includes the estimated number of 5-FU molecules, read-out: A2780cisR IC50 ± SD; for Resistance Factor (Rf): IC50 A2780CisR / IC50 A2780. The protocol: (§1) Several human cell lines were used in the cytotoxicity evaluation studies, namely: ovarian cancer cells (A2780), cisplatin-resistant ovarian cancer cells (A2780CisR), breast cancer cells (MCF-7), colorectal adenocarcinoma cells (CACO-2), and fibroblast cells (BJ, a non-cancer cell line). All cell lines were cultured in 96-well plates at a seeding density of 1 × 10^4 cells per well with a specific culture medium supplemented with 10% (v/v) fetal bovine serum (FBS) and 1% (v/v) antibiotic–antimycotic solution (AA, 100× solution) at 37 °C, in a humidified atmosphere and 5% CO2. Specific cell culture media were as follows: the A2780 and A2780CisR cell lines were cultured in RPMI 1640 medium supplemented with L-glutamine (2 mM), and 1% (w/v) of cisplatin (100 mM) in the case of A2780CisR cells (cisplatin was only used in the subculturing process before the cytotoxicity assays); the MCF-7 cell line was cultured in RPMI 1640 medium supplemented with 1 mM sodium pyruvate, 1% (v/v) nonessential amino acids (NEAA, 100× solution), and human insulin 3.3 µg/mL; the CACO-2 cell line was cultured in MEM medium supplemented with 1% (v/v) NEAA; the BJ cell line was cultured in D-MEM medium. After 24 h in culture, cells were incubated with the compounds under testing prepared in nuclease-free water. In all cases, 100 µL of the compound solution was used for a total volume of 200 µL in the well. The metallodendrimers cytotoxicity was evaluated using all the mentioned cell lines at the concentrations of 0.01, 0.03, 0.1, 0.5, 1, 2.5, 5, and 10 µM. Pristine anionic PAMAM dendrimers (G0.5–3.5) were used as controls. The cytotoxicity of the metallodendrimer G2.5COO(DACHPt)16/5-FU was evaluated using A2780CisR, and CACO-2 cells at the concentrations of 0.01, 0.2, 1, 5, 10 and 20 µg/mL, and G2.5(COONa)32/5-FU and free 5-FU were used as controls. After 72 h of incubation with the compounds under testing, the culture medium was replaced by new culture medium containing 10% (v/v) of a MTT (3-(4,5-dimethylthiazol-2-yl)-2,5-diphenyltetrazolium bromide) solution (0.5 mg/mL). After 3 h of incubation, the culture medium was aspirated, and the formed formazan crystals were dissolved in 100 µL of DMSO. Absorbance intensity was measured at 550 nm in a microplate reader (Victor3 1420, Perkin Elmer, Waltham, MA, USA). Three independent experiments with three replicas each were carried out. The concentration that inhibited 50% of the cellular metabolic activity (IC50) was determined by linear interpolation between the two experimental points closer to the point correspondent to 50% of the control’s cellular metabolic activity. Results are presented as the mean ± standard deviation (SD).

A further data set concerns red blood cells. The experiment in a line: Hemotoxicity (hemolysis) assay, cyanmethemoglobin method. The data set is classed as cell-based. Conditions: human blood; for hemolysis percentage (release of hemoglobin): 3 h, 37 °C, 5 µM. How it is done:
Human blood from healthy donors was collected in tubes containing EDTA and used to evaluate the compounds’ hemotoxicity under testing towards red blood cells by the cyanmethemoglobin method. The total hemoglobin concentration in the original blood was determined starting from a 250-fold dilution of blood in cyanmethemoglobin reagent (the C reagent was prepared in an amber bottle with 50 mg of potassium ferricyanide, 12.5 mg of potassium cyanide, and 35 mg of potassium dihydrogen phosphate in 250 mL of distilled water with 250 µL of Triton-X; its pH was adjusted to 7.4). A standard curve for hemoglobin was then prepared with hemoglobin from bovine blood (Figure S34). Briefly, a stock solution of the protein (1.5 mg/mL) was first prepared in C reagent, from which serial dilutions were performed to obtain standards of known concentration (in the range 0.20 to 1.4 mg/mL). Absorbance was then measured at 550 nm, and the C reagent was used as blank. The total hemoglobin concentration was determined using this standard curve, taking into consideration the initial dilution. For hemotoxicity evaluation of the compounds under testing, a 10% (v/v) blood solution was prepared in PBS (Mg^2+/Ca^2+ free). Then, 10 µL of this blood solution was added to several microtubes containing 70 µL of compound solution (at the concentrations 0.1, 1, and 5 µM); for controls, microtubes with 70 µL of distilled water (positive control) and 70 µL of PBS (negative control) were also prepared. After, the microtubes were incubated at 37 °C for 3 h and subsequently centrifuged at 3800 rpm for 10 min. In the end, 40 µL of each supernatant were transferred to 96-well plates, 160 µL of C reagent was added, and absorbance was measured at 550 nm. The concentration of hemoglobin in the supernatants was then determined using the same standard curve and considering the performed dilutions. The results are presented as a percentage of hemolysis (mean of three independent assays) ± standard deviation (SD). A Perkin Elmer VICTOR^3™ Multilabel Reader spectrophotometer was used in this assay.

For data set [2], the system named is CACO-2 colorectal adenocarcinoma cells. The experiment in a line: MTT cytotoxicity assay, CACO-2. The data set is classed as cell-based, human. Conditions: for 5-FU loaded systems MW includes the estimated number of 5-FU molecules, read-out: CACO-2 IC50 ± SD.
Method: All cell lines were cultured in 96-well plates at a seeding density of 1 × 10^4 cells per well with a specific culture medium supplemented with 10% (v/v) fetal bovine serum (FBS) and 1% (v/v) antibiotic–antimycotic solution (AA, 100× solution) at 37 °C, in a humidified atmosphere and 5% CO2. […] After 24 h in culture, cells were incubated with the compounds under testing prepared in nuclease-free water. In all cases, 100 µL of the compound solution was used for a total volume of 200 µL in the well. The metallodendrimers cytotoxicity was evaluated using all the mentioned cell lines at the concentrations of 0.01, 0.03, 0.1, 0.5, 1, 2.5, 5, and 10 µM. Pristine anionic PAMAM dendrimers (G0.5–3.5) were used as controls. The cytotoxicity of the metallodendrimer G2.5COO(DACHPt)16/5-FU was evaluated using A2780CisR, and CACO-2 cells at the concentrations of 0.01, 0.2, 1, 5, 10 and 20 µg/mL, and G2.5(COONa)32/5-FU and free 5-FU were used as controls. After 72 h of incubation with the compounds under testing, the culture medium was replaced by new culture medium containing 10% (v/v) of a MTT (3-(4,5-dimethylthiazol-2-yl)-2,5-diphenyltetrazolium bromide) solution (0.5 mg/mL). After 3 h of incubation, the culture medium was aspirated, and the formed formazan crystals were dissolved in 100 µL of DMSO. […] Three independent experiments with three replicas each were carried out.
For data set [3], the system named is A2780 ovarian cancer cells. The experiment in a line: MTT cytotoxicity assay, A2780. Conditions: for IC50: MTT, 72 h, read-out: A2780 IC50 ± SD. The data set is classed as cell-based, human. How it is done: as §1
Background: Tetrazolium assays rely on reduction of a dye to a coloured formazan, in cell work by metabolically active cells.

Data set [4] deals with MCF-7 breast cancer cells. The experiment in a line: MTT cytotoxicity assay, MCF-7. The data set is classed as cell-based, human. Conditions: for IC50: MTT, 72 h, read-out: MCF-7 IC50 ± SD. How it is done: as §1
Data set [5] relates to BJ fibroblast cells (non-cancer cell line). The experiment in a line: MTT cytotoxicity assay, BJ. The data set is classed as cell-based, human. Conditions: 72 h, read-out: BJ IC50 ± SD. How it is done: Several human cell lines were used in the cytotoxicity evaluation studies, namely: ovarian cancer cells (A2780), cisplatin-resistant ovarian cancer cells (A2780CisR), breast cancer cells (MCF-7), colorectal adenocarcinoma cells (CACO-2), and fibroblast cells (BJ, a non-cancer cell line). All cell lines were cultured in 96-well plates at a seeding density of 1 × 10^4 cells per well with a specific culture medium supplemented with 10% (v/v) fetal bovine serum (FBS) and 1% (v/v) antibiotic–antimycotic solution (AA, 100× solution) at 37 °C, in a humidified atmosphere and 5% CO2. […] The metallodendrimers cytotoxicity was evaluated using all the mentioned cell lines at the concentrations of 0.01, 0.03, 0.1, 0.5, 1, 2.5, 5, and 10 µM. […] The cytotoxicity of the metallodendrimer G2.5COO(DACHPt)16/5-FU was evaluated using A2780CisR, and CACO-2 cells at the concentrations of 0.01, 0.2, 1, 5, 10 and 20 µg/mL, and G2.5(COONa)32/5-FU and free 5-FU were used as controls. […] Absorbance intensity was measured at 550 nm in a microplate reader (Victor3 1420, Perkin Elmer, Waltham, MA, USA). […]

Another data set relates to calf thymus DNA (CT-DNA). The experiment in a line: DNA binding study by UV-vis spectroscopy (Benesi-Hildebrand). Conditions: increasing CT-DNA 0-50 µM, 5 mM Tris-HCl/50 mM NaCl pH 7.4, 5 min incubation. How it is done: The stock solutions of DNA were directly prepared in this buffer. DNA purity was assessed by UV–vis spectroscopy using the absorbance values ratio at 260 nm and 280 nm (it should be between 1.8–1.9 to make sure it is sufficiently protein-free). […] The compounds and the CT-DNA were incubated for 5 min at room temperature. The absorbance was measured in a PerkinElmer UV–vis spectrometer Lambda equipment, using the buffer as blank. […] The intrinsic binding constant, Kb, of the compounds with DNA, was determined using the Benesi–Hildebrand equation [36]: A0/(A−A0) = εG/(εH-G − εG) + εG/(εH-G − εG) × 1/(Kb[DNA]), where Kb is the binding constant, [DNA] is the DNA concentration, A0 and A are the absorbance values of the free compound and compound–DNA complex, and εG and εH-G are their absorption coefficients, respectively. Binding constant values were then obtained from the ratio of the y-intercept to the slope in the plots A0/A−A0 vs. 1/[DNA]. Additionally, the Gibbs free energy (ΔG) associated with the process of DNA binding was calculated using the usual equation: ∆G = −RTlnKb, where T is the temperature in Kelvin and R the gas constant.

The mark [6] stands for this setting: IC50 oxaliplatin / IC50 compound.

Where two headings read alike, the source gives them in different places.

For orientation: IC50 means the point on the concentration scale where inhibition reaches its midpoint. For `O=c1[nH]cc(F)c(=O)[nH]1` [5-FU, 5-fluoro-1H-pyrimidine-2,4-dione], the IC50 in data set [1] (Homo sapiens, A2780cisR) was more than 154 µM; in data set [2] (Homo sapiens, Caco-2, 72 h), more than 154 µM. Also, in the data set with red blood cells (concentrations 0.1 and 1 µg/mL), the hemolysis at 3 h is approximately 5%.
For `O=C1[O][Pt]2([NH][C@@H]3CCCC[C@H]3[NH]2)[O]C1=O` [Oxaliplatin, [(1R,2R)-cyclohexane-1,2-diamine] (ethanedioato-O,O′)platinum(II)], the half-inhibitory concentration (IC50) was 0.48 ± 0.03 µM in data set [3], more than 10 µM in data set [4], 3.5 ± 0.5 µM in data set [1] and more than 10 µM in data set [5]. Besides, the “Resistance Factor (Rf)” value in data set [1] is reported as 7.2. Besides, in the data set with red blood cells, the “hemolysis percentage (release of hemoglobin)” value is recorded as “around 12%”. For the same molecule, in the data set on calf thymus DNA (CT-DNA), the “Change in Absorbance” value is “Hyperchromism”.
“trans-(R,R)-1,2-diaminocyclohexanedichloroplatinum(II) [DACHPtCl2]”: the “Selectivity Index (SI) A2780” value in data set [3] (IC50 BJ / IC50 A2780) is given as more than 32. Besides, in data set [3] (setting [6]), the “Relative Potency (RP) A2780” value turned out to be 1.7. Moreover, the concentration for half-maximal inhibition (IC50) in data set [3] is 0.3 ± 0.2 µM; in data set [4] it was 5 ± 2 µM; in data set [1], 1.7 ± 0.4 µM; in data set [5] it was more than 9 µM; in data set [2] (72 h), more than 10 µM. Besides, the “Selectivity Index (SI) MCF-7” value in data set [4] (IC50 BJ / IC50 MCF-7) is recorded as more than 1.7. Further, the “Relative Potency (RP) MCF-7” value in data set [4] (setting [6]) is given as more than 1.9. The “Resistance Factor (Rf)” value in data set [1] was found to be 6.2. Moreover, the “Selectivity Index (SI) A2780CisR” value in data set [1] (IC50 BJ / IC50 A2780CisR) is reported as more than 5.2. The “Relative Potency (RP) A2780CisR” value in data set [1] (setting [6]) amounted to 2. Besides, the “hemolysis percentage (release of hemoglobin)” value in the data set on red blood cells was 7–10%. For the same molecule, the “Change in Absorbance” value in the data set on calf thymus DNA (CT-DNA) is given as “Hyperchromism”.

These data come from PMC8156256, “Use of Half-Generation PAMAM Dendrimers (G0.5–G3.5) with Carboxylate End-Groups to Improve the DACHPtCl2 and 5-FU Efficacy as Anticancer Drugs” (Molecules, 2021).
